Reference: patent publication US20110229575A1, “DEEP IMMERSION FLOTATION THERAPY FOR BURN VICTIMS” (priority 2008, published 2011)

What was measured:
Lipophilicity of the PFC = format: physicochemical
Source text: Circulation of the perflurocarbon liquid can be employed so that the patient floats without constraints, alleviating pain associated with usual system of treatment. As the liquid is continuously circulated, external heating or cooling of the fluid can be employed in order to maintain a comfort level for the patient. The fluid is preferably filtered to assure a biologically inert and/or sterile liquid environment for the patient. Additionally, a gas mixture containing 0 to 100% oxygen from (with adequate controls and precautions for ultra-ambient levels) is bubbled in the circulating PFC to supply oxygen to the patient's skin. PFCs are excellent transporters of oxygen and carbon dioxide; being that the PFCs are slightly lipophilic at body temperature and would help in the transport of oxygen into and removal of carbon dioxide from the skin tissue, accelerating the healing process.

[1] = Physical properties of F-tert-butylcyclohexane; format: physicochemical
Source text: Oxycyte™ is based on the perfluorocarbon F-tert-butylcyclohexane, a saturated alicyctic PFC (molecular formula C10F20) and can be used as a PFC composition in the methods and uses described herein. Physical properties of F-tert-butylcyclohexane are as follows: […]

## FC(F)(F)C(C(F)(F)F)(C(F)(F)F)C1(F)C(F)(F)C(F)(F)C(F)(F)C(F)(F)C1(F)F [F-tert-butylcyclohexane, perfluoro-tert-butylcyclohexane]
Lipophilicity of the PFC; at body temperature
  Lipophilicity: only slightly lipophilic
Lipophilicity of the PFC; at room temperature
  Lipophilicity: not lipophilic
[1]
  Density: 1.97 g/mL
  Kinematic Viscosity: 5.378 cP
[1]; @25° C.
  Vapor Pressure: 3.8 mmHg
[1]; @37° C.
  Vapor Pressure: 4.4 mmHg
